Assay results as given in ChEMBL document CHEMBL1201862, “PubChem BioAssay data set” (2004).
Each block holds one molecule with its values, some of them ahead of it. Calls of active or inactive are those of the source.

Experiments:
[1] = biological target: NACHT, LRR and PYD domains-containing protein 1 (Homo sapiens, UniProt Q9C000); assay: NALP1 inhibitors in yeast, dose response, luminescent (AID 488860); format: functional
Saccharomyces cerevisiae = assay: S. cerevisiae Caspase-1/ASC signal blockers IC50, NALP1 inhibitor project selectivity test (AID 488863); format: functional, organism-based
[2] = biological target: T1, Intestinal-type alkaline phosphatase (Homo sapiens, UniProt P09923); assay: Dose Response confirmation of uHTS hits from a small molecule inhibitors of human intestinal alkaline phosphatase via a luminescent assay. [Related pubchem assays (depositor defined):AID2544, AID2574]; format: functional
T1 sequence (P09923 whole entry): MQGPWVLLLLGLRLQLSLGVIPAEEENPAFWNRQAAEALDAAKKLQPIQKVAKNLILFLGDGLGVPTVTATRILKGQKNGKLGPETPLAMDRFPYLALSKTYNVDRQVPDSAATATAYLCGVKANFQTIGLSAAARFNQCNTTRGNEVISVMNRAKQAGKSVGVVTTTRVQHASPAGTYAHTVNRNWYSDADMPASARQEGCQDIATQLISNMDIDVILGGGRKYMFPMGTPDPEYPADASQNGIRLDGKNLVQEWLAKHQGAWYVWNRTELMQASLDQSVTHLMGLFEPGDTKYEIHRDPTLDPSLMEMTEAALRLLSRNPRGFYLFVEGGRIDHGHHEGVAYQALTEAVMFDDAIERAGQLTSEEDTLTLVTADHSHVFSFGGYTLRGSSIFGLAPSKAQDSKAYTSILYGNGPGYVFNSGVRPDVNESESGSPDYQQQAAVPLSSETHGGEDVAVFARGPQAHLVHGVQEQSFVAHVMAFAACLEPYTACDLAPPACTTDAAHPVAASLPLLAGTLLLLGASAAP

[3] = biological target: T1, Intestinal-type alkaline phosphatase; assay: human intestinal alkaline phosphatase activators, dose response, biochemical, luminescence, uHTS hits (AID 463120); format: functional
Trypanosoma cruzi = assay: anti-trypanosomal activity in host cells – cell-based, plate reader, dry powder, set 3, dose response (AID 493197); format: functional
[4] = NIH/3T3 cell viability loss – mouse embryonic fibroblasts, dry powder, set 2, cytotoxicity control, dose response (AID 493247); format: functional, cell-based; settings: Fibroblast
[5] = biological target: Neurotensin receptor type 1 (Homo sapiens, UniProt P30989); format: functional;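 note: Image-based confirmatory dose-response assay measuring agonist activity at NTR1; NTR1-expressing U2OS osteosarcoma cells imaged for beta-arrestin GFP spot formation; agonist potency where compounds increase beta-arrestin recruitment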
Sequence of Neurotensin receptor type 1 (P30989 whole entry, the tested form may be a part): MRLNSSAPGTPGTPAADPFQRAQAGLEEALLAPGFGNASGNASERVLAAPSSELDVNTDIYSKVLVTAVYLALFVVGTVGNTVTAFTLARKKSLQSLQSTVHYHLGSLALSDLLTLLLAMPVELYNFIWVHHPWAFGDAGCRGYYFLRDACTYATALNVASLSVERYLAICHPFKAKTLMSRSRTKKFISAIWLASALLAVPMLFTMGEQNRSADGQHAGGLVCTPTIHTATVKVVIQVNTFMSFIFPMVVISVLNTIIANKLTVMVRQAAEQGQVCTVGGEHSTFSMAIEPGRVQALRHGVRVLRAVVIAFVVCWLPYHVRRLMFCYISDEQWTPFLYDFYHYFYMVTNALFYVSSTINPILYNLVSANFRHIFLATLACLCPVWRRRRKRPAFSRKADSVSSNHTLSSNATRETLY

[6] = biological target: 1-acylglycerol-3-phosphate O-acyltransferase ABHD5/Perilipin-5 (Homo sapiens, UniProt Q00G26+Q8WTS1); assay: Luminescence-based biochemical high throughput dose response assay for inhibitors of the interaction of the lipase co-activator protein, abhydrolase domain containing 5 (ABHD5) with perilipin-5 (MLDP; PLIN5) (2K validation set). [Related pubchem assays (depositor defined):AID493035, AID493241]
Sequence of 1-acylglycerol-3-phosphate O-acyltransferase ABHD5/Perilipin-5 (Q00G26 whole entry, the tested form may be a part): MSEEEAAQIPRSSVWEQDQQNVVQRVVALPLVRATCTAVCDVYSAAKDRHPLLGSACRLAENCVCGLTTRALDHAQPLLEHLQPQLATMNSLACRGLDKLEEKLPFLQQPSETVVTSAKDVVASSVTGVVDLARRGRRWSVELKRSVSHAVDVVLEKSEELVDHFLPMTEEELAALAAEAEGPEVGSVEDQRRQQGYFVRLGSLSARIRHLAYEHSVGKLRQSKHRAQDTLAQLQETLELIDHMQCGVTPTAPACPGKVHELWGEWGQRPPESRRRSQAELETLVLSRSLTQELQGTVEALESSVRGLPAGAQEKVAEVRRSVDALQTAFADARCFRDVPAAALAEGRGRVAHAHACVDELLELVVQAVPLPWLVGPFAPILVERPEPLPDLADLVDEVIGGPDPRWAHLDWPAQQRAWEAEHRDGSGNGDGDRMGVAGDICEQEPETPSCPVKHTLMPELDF
Sequence of 1-acylglycerol-3-phosphate O-acyltransferase ABHD5/Perilipin-5 (Q8WTS1 whole entry, the tested form may be a part): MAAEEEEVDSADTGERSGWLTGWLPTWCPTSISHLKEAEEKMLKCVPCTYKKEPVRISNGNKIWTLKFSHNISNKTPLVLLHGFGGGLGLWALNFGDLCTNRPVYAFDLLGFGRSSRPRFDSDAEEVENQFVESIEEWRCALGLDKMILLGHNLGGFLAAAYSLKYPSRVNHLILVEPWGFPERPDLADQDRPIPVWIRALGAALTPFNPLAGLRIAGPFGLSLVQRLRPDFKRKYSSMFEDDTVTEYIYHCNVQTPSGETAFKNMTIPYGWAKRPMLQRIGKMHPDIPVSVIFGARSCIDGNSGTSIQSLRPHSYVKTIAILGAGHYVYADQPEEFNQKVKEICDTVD

Perilipin-1/ABHD5 = Perilipin-1/ABHD5 (Homo sapiens, UniProt O60240+Q8WTS1); assay: Luminescence-based biochemical high throughput dose response assay for inhibitors of the interaction of the lipase co-activator protein, abhydrolase domain containing 5 (ABHD5) with perilipin-1 (PLIN1) (2K validation set). [Related pubchem assays (depositor defined):AID493027, AID493057]
Sequence of Perilipin-1/ABHD5 (Q8WTS1 whole entry, the tested form may be a part): as above
Sequence of Perilipin-1/ABHD5 (O60240 whole entry, the tested form may be a part): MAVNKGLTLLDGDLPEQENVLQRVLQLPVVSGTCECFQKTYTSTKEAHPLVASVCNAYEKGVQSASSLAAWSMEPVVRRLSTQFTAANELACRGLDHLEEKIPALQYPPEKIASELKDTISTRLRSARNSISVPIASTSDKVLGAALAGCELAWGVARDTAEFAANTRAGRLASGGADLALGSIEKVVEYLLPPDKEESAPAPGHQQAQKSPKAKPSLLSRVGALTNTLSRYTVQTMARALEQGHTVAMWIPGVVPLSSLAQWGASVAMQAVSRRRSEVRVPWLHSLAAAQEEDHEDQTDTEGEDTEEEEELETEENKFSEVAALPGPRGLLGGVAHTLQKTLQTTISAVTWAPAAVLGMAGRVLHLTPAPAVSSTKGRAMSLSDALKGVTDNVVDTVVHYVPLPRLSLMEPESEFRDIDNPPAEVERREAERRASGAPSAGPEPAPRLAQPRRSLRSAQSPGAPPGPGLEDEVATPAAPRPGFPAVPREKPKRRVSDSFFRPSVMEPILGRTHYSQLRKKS

[7] = biological target: T2, Short transient receptor potential channel 4 (Mus musculus, UniProt Q9QUQ5); assay: calcium entry via TRPC4 opening agents – cell-based, HEK293 TRPC4/mu-opioid, Fluo-4 calcium, dose response (AID 434937); format: functional
T2 sequence (Q9QUQ5 whole entry): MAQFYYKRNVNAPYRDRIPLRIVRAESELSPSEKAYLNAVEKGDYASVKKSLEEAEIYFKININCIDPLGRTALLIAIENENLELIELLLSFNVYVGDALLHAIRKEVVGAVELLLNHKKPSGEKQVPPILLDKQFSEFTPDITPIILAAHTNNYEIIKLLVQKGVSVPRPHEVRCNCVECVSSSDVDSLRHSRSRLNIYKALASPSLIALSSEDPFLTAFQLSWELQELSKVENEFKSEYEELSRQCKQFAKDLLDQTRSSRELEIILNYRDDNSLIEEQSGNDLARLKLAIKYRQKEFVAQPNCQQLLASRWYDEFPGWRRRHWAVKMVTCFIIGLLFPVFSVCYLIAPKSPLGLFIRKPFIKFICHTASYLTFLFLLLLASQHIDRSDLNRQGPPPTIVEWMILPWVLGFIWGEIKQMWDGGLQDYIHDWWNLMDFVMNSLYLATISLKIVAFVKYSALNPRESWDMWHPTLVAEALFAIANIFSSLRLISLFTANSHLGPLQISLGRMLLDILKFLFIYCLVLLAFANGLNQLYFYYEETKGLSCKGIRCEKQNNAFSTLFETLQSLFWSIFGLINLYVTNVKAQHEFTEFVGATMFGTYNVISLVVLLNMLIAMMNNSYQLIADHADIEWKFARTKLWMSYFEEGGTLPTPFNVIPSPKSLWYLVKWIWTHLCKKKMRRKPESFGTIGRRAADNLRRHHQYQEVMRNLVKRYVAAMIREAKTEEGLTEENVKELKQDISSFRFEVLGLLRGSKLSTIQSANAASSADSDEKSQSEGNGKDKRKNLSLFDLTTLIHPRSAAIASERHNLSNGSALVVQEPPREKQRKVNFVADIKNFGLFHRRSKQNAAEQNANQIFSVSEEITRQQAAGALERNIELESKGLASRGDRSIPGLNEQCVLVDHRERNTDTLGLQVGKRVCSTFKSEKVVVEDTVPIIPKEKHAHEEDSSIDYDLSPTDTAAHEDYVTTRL

[8] = biological target: T2, Short transient receptor potential channel 4; assay: potentiation of DAMGO-evoked TRPC4 calcium signal – cell-based, HEK293 TRPC4/mu-opioid, Fluo-4 calcium, EC20 DAMGO, dose response (AID 434941); format: functional
Cytochrome P450 2D6 = Cytochrome P450 2D6 (Homo sapiens, UniProt P10635);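 note: CYP2D6 member of a cytochrome P450 panel assay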
Sequence of Cytochrome P450 2D6 (P10635 whole entry): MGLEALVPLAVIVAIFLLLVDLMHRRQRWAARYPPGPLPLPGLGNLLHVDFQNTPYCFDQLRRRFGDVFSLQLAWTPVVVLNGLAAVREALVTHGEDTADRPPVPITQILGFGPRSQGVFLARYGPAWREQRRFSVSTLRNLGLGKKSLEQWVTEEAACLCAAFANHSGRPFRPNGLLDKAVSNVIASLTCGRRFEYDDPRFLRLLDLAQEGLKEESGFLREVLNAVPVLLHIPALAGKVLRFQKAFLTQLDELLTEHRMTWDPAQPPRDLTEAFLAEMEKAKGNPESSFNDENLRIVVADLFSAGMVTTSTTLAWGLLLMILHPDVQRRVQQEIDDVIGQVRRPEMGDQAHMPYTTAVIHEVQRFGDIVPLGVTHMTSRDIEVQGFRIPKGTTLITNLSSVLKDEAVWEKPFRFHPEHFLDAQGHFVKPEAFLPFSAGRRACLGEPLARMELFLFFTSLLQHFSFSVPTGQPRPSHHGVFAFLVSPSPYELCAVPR

Cytochrome P450 2C19 = Cytochrome P450 2C19 (Homo sapiens, UniProt P33261); assay: Cytochrome panel assay with activity outcomes. Panel member name: p450-cyp2c19 Compounds with AC50 equal or less than 10 uM are considered active; format: functional; settings: read-out: AC50
Sequence of Cytochrome P450 2C19 (P33261 whole entry): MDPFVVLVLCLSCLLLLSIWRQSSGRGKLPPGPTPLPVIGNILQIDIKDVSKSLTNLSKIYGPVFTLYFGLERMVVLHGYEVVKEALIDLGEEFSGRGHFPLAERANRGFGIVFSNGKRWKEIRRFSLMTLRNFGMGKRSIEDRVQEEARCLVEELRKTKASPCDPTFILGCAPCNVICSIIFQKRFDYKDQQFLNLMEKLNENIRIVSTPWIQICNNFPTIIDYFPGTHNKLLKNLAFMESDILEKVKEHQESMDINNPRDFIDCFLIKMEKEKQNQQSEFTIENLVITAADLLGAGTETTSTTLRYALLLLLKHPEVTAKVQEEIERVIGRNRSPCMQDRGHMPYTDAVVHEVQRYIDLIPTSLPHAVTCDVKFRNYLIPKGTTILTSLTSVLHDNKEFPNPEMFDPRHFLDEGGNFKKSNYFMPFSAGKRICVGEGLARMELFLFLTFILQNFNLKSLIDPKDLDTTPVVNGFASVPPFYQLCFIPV

Sequence of NACHT, LRR and PYD domains-containing protein 1 (Q9C000 1-1212 limits assumed): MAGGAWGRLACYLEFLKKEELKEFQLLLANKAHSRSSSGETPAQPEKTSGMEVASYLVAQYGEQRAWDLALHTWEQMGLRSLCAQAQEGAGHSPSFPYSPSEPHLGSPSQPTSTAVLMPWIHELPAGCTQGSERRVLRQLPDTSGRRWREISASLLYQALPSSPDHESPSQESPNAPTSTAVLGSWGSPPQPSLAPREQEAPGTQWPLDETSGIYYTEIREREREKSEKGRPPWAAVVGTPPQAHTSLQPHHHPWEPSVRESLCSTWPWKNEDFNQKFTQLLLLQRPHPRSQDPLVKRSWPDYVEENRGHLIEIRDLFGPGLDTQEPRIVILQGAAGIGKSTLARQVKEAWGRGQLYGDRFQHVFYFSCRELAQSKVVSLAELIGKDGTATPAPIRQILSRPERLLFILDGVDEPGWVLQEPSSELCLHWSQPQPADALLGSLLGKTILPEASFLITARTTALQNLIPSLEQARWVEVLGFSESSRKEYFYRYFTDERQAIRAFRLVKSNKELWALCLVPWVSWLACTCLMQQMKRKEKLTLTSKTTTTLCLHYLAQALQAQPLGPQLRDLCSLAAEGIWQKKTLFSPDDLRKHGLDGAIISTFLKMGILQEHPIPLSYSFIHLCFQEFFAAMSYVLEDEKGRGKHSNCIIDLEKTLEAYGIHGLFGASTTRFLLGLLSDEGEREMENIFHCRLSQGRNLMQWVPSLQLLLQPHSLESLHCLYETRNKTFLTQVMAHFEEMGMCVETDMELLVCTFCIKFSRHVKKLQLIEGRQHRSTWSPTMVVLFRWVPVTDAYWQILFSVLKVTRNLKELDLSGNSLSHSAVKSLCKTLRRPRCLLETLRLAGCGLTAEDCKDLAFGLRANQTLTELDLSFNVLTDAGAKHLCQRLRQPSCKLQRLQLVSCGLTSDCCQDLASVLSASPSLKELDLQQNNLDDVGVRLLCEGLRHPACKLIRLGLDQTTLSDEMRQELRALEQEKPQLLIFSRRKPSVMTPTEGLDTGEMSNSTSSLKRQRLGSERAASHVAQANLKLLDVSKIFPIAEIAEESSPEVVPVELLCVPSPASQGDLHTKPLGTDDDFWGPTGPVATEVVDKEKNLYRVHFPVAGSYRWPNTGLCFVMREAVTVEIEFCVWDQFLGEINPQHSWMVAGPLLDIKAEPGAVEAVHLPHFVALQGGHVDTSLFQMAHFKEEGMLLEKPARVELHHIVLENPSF
Sequence of NACHT, LRR and PYD domains-containing protein 1 (Q9C000 1213-1473 limits assumed): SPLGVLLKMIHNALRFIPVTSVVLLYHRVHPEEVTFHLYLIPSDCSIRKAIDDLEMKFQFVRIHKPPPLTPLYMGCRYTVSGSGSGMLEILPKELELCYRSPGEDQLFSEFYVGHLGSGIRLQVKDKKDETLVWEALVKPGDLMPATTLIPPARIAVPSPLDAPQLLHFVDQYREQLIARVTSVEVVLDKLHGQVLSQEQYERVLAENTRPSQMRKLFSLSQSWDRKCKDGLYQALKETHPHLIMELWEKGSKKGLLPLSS

SMILES: O=C(NCCCc1ccccc1)c1ccccc1O
- IC50 [1]: 13.1 µM (active)
- IC50 (Saccharomyces cerevisiae): 11.5 µM (active)

SMILES: COc1ccc(CCN(C)C(=O)C2CCCN(Cc3ccc(F)cc3)C2)cc1OC (stereo not drawn)
- AC50 (Trypanosoma cruzi): 4.33 µM (active)
- AC50 [4]: 64.7 µM (active)

Continued, values first:

- IC50 [2]: > 100 µM (inactive)
- EC50 [3]: > 100 µM (inactive)
SMILES: CCn1cc(CN2CCN(C)C(CCO)C2)c2ccccc21 (stereo not drawn)

- EC50 [5]: 8.29 µM (active)
- IC50 [6]: 3.1 µM (active)
- IC50 (Perilipin-1/ABHD5): 2.28 µM (active)
SMILES: O=C1ON=C(c2ccc(Cl)cc2)/C1=C/c1ccc(O)cc1

- EC50 [7]: 0.841 µM (active)
- EC50 [8]: 0.09 µM (active)
- AC50 (Cytochrome P450 2D6): 25.1 µM (inconclusive)
- AC50 (Cytochrome P450 2C19): 7.08 µM (inconclusive)
SMILES: Cc1cc(OCCNCCO)cc(C)c1Cl
